From ChEMBL document CHEMBL1201862, “PubChem BioAssay data set” (2004) come the findings set out here.

SMILES strings stand for the structures.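 Growth conditions: 96-well plates. Treatment: test compound, 48 hours, 5 concentrations. Analysis: linear interpolation between bracketing concentrations; unreached endpoints set to highest concentration. GI50 = concentration required for 50% inhibition of growth.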 Active and inactive are the calls of the source. Rule as the data show it: active = GI50 up to about 1.1 µM and inactive = higher.

Test systems include SK-OV-3; HOP-62; LOX IMVI; Malme-3M; TK-10; CAKI-1; SR; K562; UO-31; SF-295; T47D; Hs-578T; OVCAR-3; SNB-75; NCI/ADR-RES; OVCAR-5; RXF 393; MDA-MB-231; CCRF-CEM; RPMI-8226.
What all share (assay): inhibition of tumour cell growth, NCI panel, 48 h

For `COc1ccc2c(ccc3c(COC(=O)NC(C)C)c(COC(=O)NC(C)C)n(C)c32)c1`, the GI50 was 16.7 µM (inactive) in the assay with SK-OV-3; 4.99 µM (inactive) in the assay on HOP-62; 4.62 µM (inactive) with LOX IMVI; 2.54 µM (inactive) in the assay on Malme-3M; 11.2 µM (inactive) in the assay on TK-10; 2.11 µM (inactive) with CAKI-1. For the same compound, the GI50 is 0.655 µM (active) in the assay on SR; 6.08 µM (inactive) in the assay with K562; 5.98 µM (inactive) in the assay with UO-31; 8.79 µM (inactive) with SF-295; 7.52 µM (inactive) in the assay on T47D; 13.7 µM (inactive) in the assay with Hs-578T. The GI50 with OVCAR-3 is 12.7 µM (inactive); in the assay with SNB-75, 4.6 µM (inactive); in the assay with NCI/ADR-RES, 5.01 µM (inactive); in the assay on OVCAR-5 it was 9.79 µM (inactive); in the assay with RXF 393, 9.02 µM (inactive); with MDA-MB-231, 16.3 µM (inactive). The GI50 in the assay on CCRF-CEM was 3.21 µM (inactive); in the assay on RPMI-8226 it was 10 µM (inactive).
Regarding `COc1ccc(-c2cc(=O)c3c(OC)c(OC)c(OC)cc3o2)cc1`, the GI50 in the assay on SK-OV-3 is 24.3 µM (inactive); in the assay with HOP-62, 21.1 µM (inactive); in the assay with LOX IMVI, 28.2 µM (inactive); in the assay on Malme-3M, 38 µM (inactive); with TK-10 it was 36 µM (inactive); in the assay with CAKI-1 it was 68.7 µM (inactive). For the same compound, the GI50 with SR is 11.3 µM (inactive); with K562 it was 34.4 µM (inactive); with UO-31, 19 µM (inactive); with SF-295, 24.5 µM (inactive); in the assay on T47D, 17.8 µM (inactive); in the assay with Hs-578T, 35.6 µM (inactive). Moreover, the GI50 was 26.8 µM (inactive) in the assay with OVCAR-3; 26.9 µM (inactive) with SNB-75; 28.2 µM (inactive) in the assay on NCI/ADR-RES; 44 µM (inactive) in the assay with OVCAR-5; 30.1 µM (inactive) in the assay with RXF 393; 43.8 µM (inactive) with MDA-MB-231. In addition, the GI50 was 14 µM (inactive) in the assay on CCRF-CEM and 27 µM (inactive) in the assay on RPMI-8226.
`Cc1cccc(Nc2nc3ccccc3nc2NS(=O)(=O)c2ccccc2)c1`: the GI50 was 25.2 µM (inactive) in the assay with SK-OV-3; 27.5 µM (inactive) in the assay on HOP-62; 45.4 µM (inactive) in the assay with LOX IMVI; 17.1 µM (inactive) in the assay with Malme-3M; 22.9 µM (inactive) in the assay on TK-10; 44.1 µM (inactive) in the assay with CAKI-1. Also, the GI50 in the assay on SR is 25.6 µM (inactive); in the assay on K562, 72.1 µM (inactive); in the assay with UO-31, 15.1 µM (inactive); in the assay with SF-295, 14.5 µM (inactive); in the assay with T47D, 18.5 µM (inactive); with Hs-578T, 33 µM (inactive). The GI50 is 19 µM (inactive) in the assay with OVCAR-3; 14.4 µM (inactive) in the assay with SNB-75; 20 µM (inactive) in the assay with NCI/ADR-RES; > 100 µM (inactive) in the assay on OVCAR-5; 27.7 µM (inactive) in the assay with RXF 393; 39.5 µM (inactive) in the assay with MDA-MB-231. The values for the GI50 in the assay with CCRF-CEM and in the assay with RPMI-8226 were 18.2 µM (inactive) and 7.01 µM (inactive), respectively.
Turning to `O=C1OC(c2ccccc2)=N/C1=C\c1ccc(Cl)cc1`, the GI50 in the assay with SK-OV-3, in the assay on HOP-62, with LOX IMVI, in the assay with TK-10, in the assay on CAKI-1 and in the assay with SR was > 100 µM (inactive) in each case. Further, the GI50 in the assay on K562, in the assay on UO-31, in the assay on SF-295, with T47D, in the assay on Hs-578T and with OVCAR-3 was > 100 µM (inactive) in each case. In addition, the GI50 was > 100 µM (inactive) with SNB-75; 66.2 µM (inactive) with NCI/ADR-RES; > 100 µM (inactive) in the assay on OVCAR-5; > 100 µM (inactive) in the assay with RXF 393; > 100 µM (inactive) in the assay on MDA-MB-231; 61.5 µM (inactive) in the assay with CCRF-CEM. Further, the GI50 in the assay with RPMI-8226 is > 100 µM (inactive).
For the compound `C[As+](C)(c1ccc(Br)c([N+](=O)[O-])c1)c1ccc(Br)c([N+](=O)[O-])c1`, the GI50 in the assay with SK-OV-3 was > 100 µM (inactive); in the assay with HOP-62, > 100 µM (inactive); with LOX IMVI it was > 100 µM (inactive); in the assay on Malme-3M, 18.5 µM (inactive); in the assay on TK-10 it was > 100 µM (inactive); with CAKI-1 it was > 100 µM (inactive). The GI50 in the assay with SR, in the assay with K562, with UO-31, in the assay on SF-295, with T47D and in the assay with Hs-578T was > 100 µM (inactive) in each case. Also, the GI50 in the assay with OVCAR-3, in the assay with SNB-75, with NCI/ADR-RES, with OVCAR-5, in the assay on RXF 393 and with MDA-MB-231 was > 100 µM (inactive) each time. Moreover, the GI50 in the assay with RPMI-8226 was 44.7 µM (inactive).
As to `Fc1ccc2c(c1)nc1n2C(c2c(Cl)cccc2Cl)SC1` (stereo unspecified), the GI50 with SK-OV-3 is 14.8 µM (inactive); in the assay on HOP-62, 14.4 µM (inactive); in the assay on LOX IMVI, 15 µM (inactive); with Malme-3M it was 13 µM (inactive); in the assay on TK-10, 17.5 µM (inactive); in the assay with CAKI-1, 12.3 µM (inactive). Moreover, the GI50 was 3.94 µM (inactive) with SR; 15.4 µM (inactive) in the assay with UO-31; 13.7 µM (inactive) in the assay with SF-295; 14.2 µM (inactive) in the assay with T47D; 18.3 µM (inactive) with Hs-578T; 12.9 µM (inactive) in the assay with OVCAR-3. Also, the GI50 in the assay on SNB-75 is 13 µM (inactive); in the assay on NCI/ADR-RES it was 13.4 µM (inactive); in the assay on OVCAR-5, 15.5 µM (inactive); in the assay with RXF 393 it was 17.3 µM (inactive); in the assay on MDA-MB-231 it was 15.3 µM (inactive); in the assay on RPMI-8226, 13.4 µM (inactive).
With `CCNc1ccc2c(c1)Cc1ccccc1-2`, the GI50 with HOP-62 is > 100 µM (inactive); with LOX IMVI it was 32.3 µM (inactive); with Malme-3M it was 67.9 µM (inactive); in the assay on TK-10, 33.1 µM (inactive); in the assay with CAKI-1, 27.2 µM (inactive); in the assay on SR it was 14.5 µM (inactive). The GI50 in the assay on K562 was 27.6 µM (inactive); in the assay on UO-31, 52.4 µM (inactive); in the assay with SF-295, 47.6 µM (inactive); with T47D, > 100 µM (inactive); in the assay on Hs-578T, 65.2 µM (inactive); with OVCAR-3, 29 µM (inactive). For the same compound, the GI50 was > 100 µM (inactive) in the assay with SNB-75; > 100 µM (inactive) with NCI/ADR-RES; > 100 µM (inactive) with OVCAR-5; > 100 µM (inactive) in the assay on RXF 393; 64.1 µM (inactive) with MDA-MB-231; > 100 µM (inactive) with CCRF-CEM. In the assay on RPMI-8226, the GI50 was 47.3 µM (inactive).
As to `COCN1C(N)=C(C(=O)OC(C)(C)C)C2=CC(=O)C=CC21C` (stereo unspecified), the GI50 in the assay on SK-OV-3 was 34.6 µM (inactive); in the assay with HOP-62 it was 28.4 µM (inactive); in the assay with LOX IMVI, 13.6 µM (inactive); with Malme-3M it was 9.75 µM (inactive); with TK-10, 13.4 µM (inactive); with CAKI-1 it was 15.2 µM (inactive). Further, the GI50 with SR is 12.5 µM (inactive); in the assay on K562 it was 4.92 µM (inactive); in the assay on UO-31, 13.6 µM (inactive); in the assay on SF-295 it was 43.6 µM (inactive); in the assay with T47D, 2.59 µM (inactive); in the assay on Hs-578T, 15.2 µM (inactive). Moreover, the GI50 in the assay with SNB-75 was 19.1 µM (inactive); in the assay on NCI/ADR-RES, 25.2 µM (inactive); in the assay on OVCAR-5, 18.1 µM (inactive); with RXF 393 it was 6.25 µM (inactive); with MDA-MB-231, 15.3 µM (inactive); in the assay with CCRF-CEM, 3.66 µM (inactive). Moreover, in the assay on RPMI-8226, the GI50 was 20.4 µM (inactive).
For `CNc1cc2oc(=O)cc(C)c2cc1C`, the GI50 was > 100 µM (inactive) with HOP-62; > 100 µM (inactive) in the assay with LOX IMVI; > 100 µM (inactive) in the assay on Malme-3M; 86.3 µM (inactive) in the assay with TK-10; > 100 µM (inactive) in the assay on CAKI-1; 36.4 µM (inactive) in the assay with SR. For the same compound, the GI50 is > 100 µM (inactive) in the assay with K562; > 100 µM (inactive) with SF-295; > 100 µM (inactive) with T47D; 79.1 µM (inactive) in the assay with Hs-578T; > 100 µM (inactive) with OVCAR-3; 85.3 µM (inactive) with SNB-75. Moreover, the GI50 in the assay on NCI/ADR-RES, in the assay on OVCAR-5, with RXF 393, in the assay on MDA-MB-231, in the assay with CCRF-CEM and in the assay on RPMI-8226 was > 100 µM (inactive) in each case.
As to `CN(N=O)C(=O)NNC(=O)N(C)N=O`, the GI50 with SK-OV-3 is > 100 µM (inactive); in the assay on HOP-62, > 100 µM (inactive); in the assay with LOX IMVI, 44.4 µM (inactive); with TK-10, > 100 µM (inactive); in the assay on CAKI-1 it was > 100 µM (inactive); with SR it was 8.81 µM (inactive). For the same compound, the GI50 with K562 is 66.1 µM (inactive); in the assay with UO-31, 83.9 µM (inactive); with SF-295, 94.6 µM (inactive); in the assay on T47D it was 79.1 µM (inactive); with Hs-578T, > 100 µM (inactive); with OVCAR-3, > 100 µM (inactive). The GI50 was > 100 µM (inactive) in the assay on SNB-75; > 100 µM (inactive) in the assay with NCI/ADR-RES; > 100 µM (inactive) in the assay on OVCAR-5; 26.8 µM (inactive) with RXF 393; > 100 µM (inactive) in the assay with MDA-MB-231; 31.7 µM (inactive) in the assay with CCRF-CEM. In the assay on RPMI-8226, the GI50 is 32.7 µM (inactive).
